Assay results: paper PMC8496750, “Identification of the organic anion transporting polypeptides responsible for the hepatic uptake of the major metabolite of epyrifenacil, S‐3100‐CA, in mice” (Pharmacology Research & Perspectives, 2021)

Legend:
[1] = set-up: method as in PMID 34908893; details: mice; 90‐day; cited from earlier work
[2] = Blood ^14C‐concentrations study; assay type: in vivo, Crl:CD1(ICR) mice; details: 1 mg/kg single oral
Method: Crl:CD1(ICR) mice at the age of 7 weeks were purchased from Charles River Laboratories Japan, Inc., Hino Breeding Center. The mice at the age of 8 or 9 weeks were dosed after completing a 7‐day quarantine period and an additional 0‐ to 7‐day acclimatization period. All animal experiments were conducted in accordance with the Guidance for the Care and Use of Laboratory Animals in our laboratory, which corresponds to the Guidelines for Proper Conduct of Animal Experiments (Science Council of Japan). Animals were maintained under constant environmental conditions: room temperature, 21−25°C; relative humidity, 55% ±15%; ventilation, 10 air exchanges per hour; and artificial lighting, from 8:00 am to 8:00 pm. The animals were provided with pelleted diet and water ad libitum. […] All animals were euthanized by bleeding from the abdominal artery under anesthesia.
[^14C]Epyrifenacil was isotopically diluted with the unlabeled test compound to adjust the specific activity to 5.00 MBq/mg. After evaporation of the solvent under nitrogen gas flow, labeled material was suspended in 0.5% (w/v) methylcellulose solution at a concentration of 1 mg/5 ml by grinding in a mortar. The suspension was stored frozen until the start of dosing. […] These dosing suspensions were stored in a refrigerator until dosing commenced.
Two mice per sex at 8 weeks old were given a single oral dose of [^14C]epyrifenacil at 1 mg/kg. Approximately 0.06–0.08 g of blood sample was periodically taken from the saphenous vein at 1, 2, 4, and 8 h after administration, and transferred to vials to measure the radioactivity in whole blood. […] AUC0‐∞ was calculated as the sum of AUC0‐8 h and AUC8 h‐∞. AUC0‐8 h was obtained using a trapezoidal rule, and AUC8 h‐∞ was calculated with a mono‐exponential equation describing the ^14C‐disappearance phase.

mouse Oatp1a1 = target: T1, mouse Oatp1a1 (Mus musculus, UniProt Q9QXZ6); details: inhibitor at 100 μM
T1 sequence (Q9QXZ6 1-670): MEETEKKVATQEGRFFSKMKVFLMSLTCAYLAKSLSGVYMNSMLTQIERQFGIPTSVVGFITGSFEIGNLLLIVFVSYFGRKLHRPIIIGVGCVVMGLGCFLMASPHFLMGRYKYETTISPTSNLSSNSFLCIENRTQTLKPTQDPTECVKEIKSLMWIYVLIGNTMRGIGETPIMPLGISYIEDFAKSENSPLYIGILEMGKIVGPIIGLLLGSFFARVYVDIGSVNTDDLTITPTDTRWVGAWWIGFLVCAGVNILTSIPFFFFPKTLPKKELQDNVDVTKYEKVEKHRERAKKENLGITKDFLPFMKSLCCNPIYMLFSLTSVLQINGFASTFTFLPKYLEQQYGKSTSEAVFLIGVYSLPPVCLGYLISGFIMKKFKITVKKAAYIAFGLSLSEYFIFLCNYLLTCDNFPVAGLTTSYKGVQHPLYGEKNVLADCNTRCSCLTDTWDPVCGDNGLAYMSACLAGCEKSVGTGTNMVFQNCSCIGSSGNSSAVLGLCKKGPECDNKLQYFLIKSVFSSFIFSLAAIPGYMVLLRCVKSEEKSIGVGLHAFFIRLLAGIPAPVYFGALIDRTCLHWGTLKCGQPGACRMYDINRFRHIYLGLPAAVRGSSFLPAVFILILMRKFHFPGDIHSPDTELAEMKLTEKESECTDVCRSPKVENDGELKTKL
Method: 293FT cells were purchased from Thermo Fisher Scientific, Inc.. The cells were grown in Dulbecco's modified Eagle medium (supplemented with 4.5 g/L glucose and 2 mM L‐glutamine) at 37°C, 5% CO2, and 95% humidity. The cells were passaged 3 times per week by harvesting cells using trypsin and plating at a density of 1.0 × 10^4 cells/cm^2 in a 10 cm cell culture plate for maintenance culture. The 293FT cells were detached using trypsin and re‐seeded at a density of 2.5 × 10^4 cells/cm^2 in BioCoat™ Collagen I 6‐well plates (Corning Inc.) for transfection and then treated with 1.2 μg of plasmid vector and 3.2 μl of Lipofectamine™ 2000 Transfection Reagent (Thermo Fisher Scientific, Inc.) according to the manufacturer's instructions. After a 3‐h treatment, the transfection medium was replaced with a fresh cell culture medium and incubated at 37°C with 95% humidity and 5% CO2 until ready for the assay.
Transport experiments were conducted approximately 24 h post‐transfection. The experiments were initiated by aspirating culture medium and addition of pre‐warmed radiolabeled substrate solution (final 1.0% of acetonitrile or 0.9% of ethanol in phosphate‐buffered saline (PBS[−])) to each well. After a 10‐min incubation, cells were washed twice with 1 ml of ice‐cold PBS(−) and lysed with 700 μl of 1.0 M NaOH for 3 h or more at room temperature. The lysate was transferred to a 1.5‐ml tube, and neutralized with 350 μl of 2.0 M HCl and 350 μl of 2.0% sodium dodecyl sulfate (SDS) solution. From the lysate, 1.0 ml was transferred to a vial containing 10 ml of Emulsifier Scintillator Plus to measure the radioactivity in the LSC. The protein concentration of the cell lysate was also measured using a Pierce™ BCA Protein Assay Kit (Thermo Fisher Scientific, Inc.), which was used to normalize, according to the cell number, the radioactivity in the cell lysate extract. The protein assay was performed in duplicate. Each sample type was assayed in triplicate wells, and each run was performed twice. […] Each sample type was assayed in triplicate wells.

| SMILES | Hepatocyte injury [1] | ^14C‐Concentration in blood ([2]; 1 h, Female Animal_1) | ^14C‐Concentration in blood ([2]; 1 h, Female Animal_2) | ^14C‐Concentration in blood ([2]; 1 h, Male Animal_1) | ^14C‐Concentration in blood ([2]; 1 h, Male Animal_2) | ^14C‐Concentration in blood ([2]; 2 h, Female Animal_1) | ^14C‐Concentration in blood ([2]; 2 h, Female Animal_2) | ^14C‐Concentration in blood ([2]; 2 h, Male Animal_1) | ^14C‐Concentration in blood ([2]; 2 h, Male Animal_2) | ^14C‐Concentration in blood ([2]; 4 h, Female Animal_1) | ^14C‐Concentration in blood ([2]; 4 h, Female Animal_2) | ^14C‐Concentration in blood ([2]; 4 h, Male Animal_1) | ^14C‐Concentration in blood ([2]; 4 h, Male Animal_2) | ^14C‐Concentration in blood ([2]; 8 h, Female Animal_1) | ^14C‐Concentration in blood ([2]; 8 h, Female Animal_2) | ^14C‐Concentration in blood ([2]; 8 h, Male Animal_1) | ^14C‐Concentration in blood ([2]; 8 h, Male Animal_2) | C max of ^14C in blood ([2]; female mice) | C max of ^14C in blood ([2]; male mice) | Uptake of S‐3100‐CA, % of that by vehicle‐treated cells (mouse Oatp1a1) |
| --- | --- | --- | --- | --- | --- | --- | --- | --- | --- | --- | --- | --- | --- | --- | --- | --- | --- | --- | --- | --- |
| CCOC(=O)COc1ncccc1Oc1cc(-n2c(=O)cc(C(F)(F)F)n(C)c2=O)c(F)cc1Cl [Epyrifenacil, ethyl[(3‐{2‐chloro‐4‐fluoro‐5‐[3‐methyl‐2,6‐dioxo‐4‐(trifluoromethyl)‐3,6‐dihydropyrimidin‐1(2H)‐yl]phenoxy}pyridin‐2‐yl)oxy]acetate] | produced hepatocyte injury | 0.127 µg eq. of epyrifenacil/g | 0.073 µg eq. of epyrifenacil/g | 0.030 µg eq. of epyrifenacil/g | 0.030 µg eq. of epyrifenacil/g | 0.111 µg eq. of epyrifenacil/g | 0.064 µg eq. of epyrifenacil/g | 0.031 µg eq. of epyrifenacil/g | 0.034 µg eq. of epyrifenacil/g | 0.076 µg eq. of epyrifenacil/g | 0.060 µg eq. of epyrifenacil/g | 0.028 µg eq. of epyrifenacil/g | 0.051 µg eq. of epyrifenacil/g | 0.045 µg eq. of epyrifenacil/g | 0.061 µg eq. of epyrifenacil/g | 0.024 µg eq. of epyrifenacil/g | 0.033 µg eq. of epyrifenacil/g | 0.100 μg eq. of epyrifenacil/g | 0.040 μg eq. of epyrifenacil/g |  |
| CO[C@H]1/C=C/O[C@@]2(C)Oc3c(C)c(O)c4c(O)c(c(/C=N/N5CCN(C)CC5)c(O)c4c3C2=O)NC(=O)/C(C)=C\C=C\[C@H](C)[C@H](O)[C@@H](C)[C@@H](O)[C@@H](C)[C@H](OC(C)=O)[C@@H]1C [RIF, Rifampicin] |  |  |  |  |  |  |  |  |  |  |  |  |  |  |  |  |  |  |  | less than 40% |
